Experiments:
live cells = experiment: Toxicity of HEDS to live cells; format: cell-based; details: live cells reducing HEDS to mercaptoethanol
From the text: In a particular embodiment, the assay of the instant invention use hydroxyethyldisulfide (HEDS), a unique non-toxic disulfide, to measure glucose dependent metabolic activity of live cells in vitro. The survival of cells is directly proportional to the conversion of HEDS into mercaptoethanol (ME) by metabolically active live cells. Dead cells fail to convert HEDS into mercaptoethanol. Accordingly, the assays of the instant invention generally encompass contacting cells (e.g., live cells) with HEDS and then monitoring or measuring the amount of extracellular ME. The amount of ME produced from HEDS can be measured in the extracellular medium since ME is extruded out quickly into the extracellular medium. Extracellular ME may be measured, for example, by a dithiobiznitrobenzoic acid (DTNB) assay or High Performance Liquid Chromatography/Electrochemical Detection (HPLC/EC): The cells of the assay may be any cell that produces NADPH, particularly mammalian cells and yeast. The percentage of live cells may be determined by the amount of ME produced.
The ME produced inside the cells is extruded into the extracellular medium. This conversion mediated by the antioxidant system can be measured in the extracellular medium without the need for cellular extract. HPLC electrochemical detector was used to quantify the conversion of HEDS into mercaptoethanol in mammalian cells in tissue culture. […]

human HCT116 cells [1] = format: cell-based
human HCT116 cells [2] = test system: human HCT116 cells
human cells = format: cell-based

Row | Molecule | toxic effect on cells (live cells) | HEDS conversion (human HCT116 cells [1]) | survival of cells (arsenite toxicity) (human HCT116 cells [2]) | decrease of the ME peak (HEDS conversion) (human cells) [%]
1 | OCCSSCCO [HEDS, hydroxyethyldisulfide] | no toxic effect on cells |  |  | 
2 | arsenite |  | concentration dependent decrease in HEDS conversion | concentration dependent decrease in the survival | ~70
